Data from patent US8309140B2, “Effect of porcine sheath proteins on the regeneration activity of periodontal ligament” (priority 2005, dated 2012).
Entries after “also recorded” stand apart in the source; their conditions may differ.

Columns and labels:
[1] = test system: human periodontal ligament (HPDL) cells; settings: cited from earlier work
[2] = test system: human periodontal ligament (HPDL) cells; test: ALP inducing activity of HPDL cells on cell culture system; format: cell-based; settings: for ALP inducing activity of HPDL cells (Example 4): peptides 50 μg/mL, TGF-β1 1 ng/mL, BMP-2 1 μg/mL
From the text: (§1) Human periodontal ligament (HPDL) cells were obtained according to the method of Somerman et al., (1988) from healthy premolars which were extracted from the patients for orthodontic reasons. The cells were precultured for 4-6 passages with a-MEM medium to establish the primary cell line. The cells were maintained in the alpha modification of Eagle's medium (α-MEM; Life Technologies, Grand Island, N.Y., USA) containing 10% fetal bovine serum (FBS; Asahi Technoglass, Chiba, Japan) and 1% antibiotics (100 U/ml of Penicillin-G and 100 μg/ml of Streptomycin sulfate; Gibco BRL, Grand Island, N.Y., USA) at 37° C. in a humidified 5% CO2 atmosphere. The ST2 cells (Riken Cell Bank, Tsukuba, Japan), an osteoblast-like mouse bone marrow stromal cell line, were cultured under the same conditions.
HPDL cells were distributed in 96-well plates at a density of approximately 5×10^5 cells per a well and incubated for 24 h. The growth medium was then changed to contain 10 nM of 1α-25dihydroxy-Vitamin D3 (CALBIOCHEM, La Jolla, Calif.) and 50 μg/ml (final concentration) of fractionated enamel protein samples or synthesized peptides dissolved in ultrapure water. After 96 additional hours of incubation, the cells were washed once with PBS, and ALP activity was determined after a 10 min incubation at 37° C. in 10 mM p-nitrophenylphosphate (substrate) in 100 mM 2-amino-2-methyl-1,3-propanediol-HCl buffer (pH 10.0) containing 5 mM MgCl2. After adding 0.2 M NaOH, which stopped the reaction, the absorbance at 405 nm was read on a plate reader.
HPDL cells of approximately 5×10^5 cells per well were distributed in 96-well plates and incubated for 24 h. The growth medium was then changed to contain 10 nM of 1α-25dihydroxy-Vitamin D3 and 50 μg/ml (final concentration) of purified sheath protein or synthesized peptide. After 96 additional hours of incubation, ALP activity was determined using p-nitrophenylphosphate as a substrate.
The bioactivities of these synthetic peptides were tested their cytodifferentiation activity of HPDL cells and ST2 cells by determination of increasing ALP inducing activity on cell culture system. When these peptides applied in cell culture system, the concentration of their peptides was employed around 1 ng/ml. In the case of TGF-1, the concentration was 10 ng/ml.
Normal human periodontal ligament fibroblasts were maintained in an α-minimal essential medium (α-MEM) containing 10% fetal bovine serum, either with or without 10 nM 1α-25dihydroxy-vitamin D3 and 1% antibiotics (100 U/mL of penicillin G and 100 μg/mL of streptomycin sulfate) at 37° C. in a humidified atmosphere of air containing 5% CO2. Another cell line, ST2 cells, was obtained from an osteoblast-like mouse bone marrow stromal cell line. These cells were cultured in the same conditions as those described above.
The ALP inducing activities of synthetic peptides using the cell culture of HPDL cells and ST2 cells were examined. The HPDL cells were distributed in 96-well plates at a density of approximately 5×10^5 cells per well and incubated for 24 h. The medium was then changed to α-MEM containing 10 nM of 1α-25dihydroxy-vitamin D3 and either synthetic peptides or growth factors dissolved in ultra-pure water. After 96 h of incubation, the cells were washed once with phosphate-buffered saline, and 10 mM ρ-nitrophenylphosphate in 100 mM 2-amino-2-methel-1,3-propanediol-HCl buffer (pH 10.0) containing 5 mM MgCl2 was added. The ALP activity was determined after 10 min incubation at 37° C. and the absorbance at 405 nm was read using a plate reader, after adding 0.2 M NaOH to stop the reaction. […] When the synthetic peptides were applied in the cell culture system, their final concentrations were 25 or 50 μg/mL. A TGF-β1 receptor inhibitor (SB431542, 10 μM) was applied to the HPDL cell culture system to examine their influence relative to the ALP inducing activity of the synthetic peptides.

HPDL cells = test: Mineralization activity of HPDL cells (alizarin red S staining, calcium content); format: cell-based, human
Procedure: (§2) The HPDL cells were plated in 24-well plates at an initial density of 1×10^5 cells/well. After 24 h of incubation, the medium was replaced with growth medium containing 50 μM ascorbic acid, 10 mM β-glycerophosphate, and 10 nM 1α,25-dihydroxyvitamin D3 (differentiation medium) and 1 μg/ml of samples. The medium was changed every 72 h. The cells were maintained for 30 days and then the medium was discarded.
The compartments of cells were fixed in 100% methanol, stained with alizarin red S for 10 min, then washed with ultrapure water and photographed to examine the biomineralization activity. The staining solution was 1% alizarin red S (sodium alizarin sulfonate) (Sigma) dissolved in ultrapure water and adjusted to pH 6.4 with 0.1N ammonium hydroxide.
For measuring the calcium content, the compartments of cells were dissolved by 0.5N hydrochloric acid. The resulting solution was measured by a Calcium C-test kit and protocol (Wako Pure Chemical Industries Ltd, Osaka, Japan). The absorbance at 570 nm was read on a plate reader.
as §2, with “h and the” for “h. The”, “days. The biomineralization activity was examined by staining with alizarin red S” for “days”, “measuring calcium content.” for “then the medium was discarded.”
The HPDL cells were plated in six-well plates at an initial density of 1×10^5 cells per well. […]
For Alizarin Red S staining, the compartments of 28 d cultured cells were fixed in 100% methanol, stained with Alizarin Red S for 10 min, then washed with ultra-pure water and photographed. […] The resulting solution was measured using a Calcium C-test kit and protocol. The absorbance at 570 nm was read with a plate reader. […]

[3] = test system: osteopontin, osteocalcin and bone sialoprotein expression in HPDL cells; test: Semi-quantitative PCR of mineralized tissue markers in cultured HPDL cells; format: cell-based, human; settings: 4, 14 and 28 d cultured HPDL cells; H-2 25 μg/mL; TGF-β1 1 ng/mL
From the text: Total RNA was extracted using RNAzol™ B from cultured HPDL cells. […] The PCR primers were designed based upon the Homo sapiens mRNA sequences. The primer pairs were as follows: osteopontin, 5′-[…]-3′ (SEQ ID NO: 45) and 5′-[…] TGAA-3′ (SEQ ID NO: 46) (301 bp); osteocalcin, 5′-[…]-3′ (SEQ ID NO: 47) and 5′-[…] GAGGT-3′ (SEQ ID NO: 48) (304 bp); and bone sialo protein, 5′-[…]-3′ (SEQ ID NO: 49) and 5′-[…]-3′ (SEQ ID NO: 50) (448 bp). A primer set amplifying glyceraldehyde-3phosphate dehydrogenase mRNA was used as a control.
The cDNAs generated from HPDL cells […] the DNA Master SYBR Green I kit and protocol and a LightCycler instrument. The relative amount of each mRNA was determined at 50% levels of PCR product, and normalized with use of the relative amount of GAPDH mRNA.

[4] = test system: buccal dehiscence type bone defects created along the roots of the canine mandibular premolars; test: Cementum regeneration (CR) activity, eight-week histological analysis on buccal dehiscence model of dogs; format: in vivo, beagle dogs; settings: histological analysis eight weeks after application; buccal dehiscence model of dogs
Procedure: Approximately 2-year-old male beagle dogs (approximate 15 kg) were used to detect the CR activities after the applications of several enamel protein samples. They had intact dentition and a healthy periodontium. The surgical preparation of buccal dehiscence type bone defects was carried out according to the modified method of Hammarström (1997) under general anesthesia induced and maintained by an endotracheal tube with 1.5-2.0% of halothane (Takeda Yakuhin Co. LTD, Osaka, Japan) in 100% oxygen, after premedicated with intramuscular injection of the mixture of Ketamine HCl (9.8 mg/kg: Sankyo Co. LTD, Tokyo, Japan) and Xylazine HCl (0.7 mg/kg: Bayer Co. LTD, Tokyo, Japan).
Contralateral buccal mucoperiosteal flaps were raised after an intracrevicular incision extending from the first mandibular premolar to the first mandibular molar. After the removing the buccal alveolar bone plate covering the mesial root of the second premolars, the exposed periodontal ligament and cementum of these areas were completely removed by means of a dental bur. At the apical end of the defect, a notch was created to identify the apical extension of the defect, when histological analyses. The distance between the cervical margin and the apical end of the defect was standardized at about 5 mm. The exposed root dentin surfaces were conditioned for 2 min with cotton pellets soaked in a 19% EDTA solution, and then carefully rinsed with sterile saline. Then 50 μg of each enamel protein sample in 100 μl of cold sterile distilled water was applied over the entire buccal surface area of the exposed roots. Finally, the mucoperiosteal flaps were repositioned to their level prior to surgery and sutured. Distilled water was used as a negative control and EMDOGAIN® (BIORA AB, Malmö, Sweden) served as a positive control.
After 8 weeks the dogs were terminated by anesthetization with sodium pentobarbital. Their heads were fixed by perfusion with 0.1 M sodium cacodylate buffer (pH 7.4) containing 4% paraformaldehyde and 1% glutaraldehyde. Tissue blocks, which included teeth, bone, and tissue were dissected and demineralized in 10% formic acid containing 0.06 M sodium citrate and 0.1 M citric acid. All specimens were dehydrated using a graded series of alcohols and then embedded in paraffin. Serial sections (5 μm thick) were made and stained with hematoxylin/eosin for examination by light microscopy.
The length and thickness of cementums regenerated after application of fractionated and purified enamel protein samples and EMD were measured on the computer monitor of histological results. The length of the regenerated cementum was straight distance between the apical end of the defect and coronal extention of the new cementum, as well as to the crest of the new alveolar bone. Also, the thickness of cementum was measured at coronal end, apical end and between them.
CR promoting activity of enamel proteins obtained at each extracted and purified step were examined by eight-week histological analysis of buccal dehiscence type bone defects created along the roots of canine mandible (FIG. 1).

ST2 cells = test: ALP inducing activity of ST2 cells on cell culture system; format: cell-based, mouse; settings: 50 μg/ml protein or peptide; TGF-β1 50 ng/ml, BMP-2 500 ng/ml
From the text: as §1
HPDL cells of approximately 5×10^5 cells per well were distributed in 96-well plates and incubated for 24 h. […] After 96 additional hours of incubation, ALP activity was determined using p-nitrophenylphosphate as a substrate. […]
The ALP inducing activities of synthetic peptides using the cell culture of HPDL cells and ST2 cells were examined. […] The ALP activity was determined after 10 min incubation at 37° C. and the absorbance at 405 nm was read using a plate reader, after adding 0.2 M NaOH to stop the reaction. […]

[5] = 10 nM 1α-25dihydroxy-vitamin D3, 96 h

| Substance | ALP inducing activity among porcine ESP synthetic peptides (previous study) [1] | ALP inducing activity of HPDL cells (Example 4) [2, 5] | ALP activity of HPDL cells (human synthetic peptides, Example 3) ([2]; peptides around 1 ng/ml, TGF-β1 10 ng/ml) | mineralization by HPDL cells (Example 4) (HPDL cells; 28 d cell culture, H-2 25 μg/mL, TGF-β1 1 ng/mL) | induction of mineralization of HPDL cells (Example 3) (HPDL cells; 30 days culture, 1 μg/ml of samples, differentiation medium) | expressions of osteopontin, osteocalcin and bone sialoprotein [3] | CR (cementum regeneration) activity [4] | ALP inducing activity of HPDL cells when adding TGF-β1 receptor inhibitor SB431542 ([2]; 10 μM SB431542, 10 nM 1α-25dihydroxy-vitamin D3) | ALP activity of HPDL cells (porcine sheath proteins and synthetic peptides) ([2]; 50 μg/ml protein or peptide, TGF-β1 50 ng/ml, BMP-2 500 ng/ml, 10 nM 1α-25dihydroxy-Vitamin D3, 96 h) | concentration for increasing ALP inducing activity of HPDL cells, molar ([2]; calculated from molecular weight (TGF-β1 25 kDa; peptides average 1.5 kDa)) | apt concentration for increasing ALP inducing activity of HPDL cells ([2]; cell culture system) | ALP activity of ST2 cells (porcine sheath proteins and synthetic peptides) (ST2 cells) |
| --- | --- | --- | --- | --- | --- | --- | --- | --- | --- | --- | --- | --- |
| QVEGPMVQQQVAPSEK (16 aa from 131 to 146 in sequence 10; listed as Sus scrofa) [P-1] | highest ALP inducing activity among all the porcine ESP synthetic peptides tested |  |  |  |  |  |  |  |  |  |  |  |
| SDKPPKPELPGVDF (14 aa from 144 to 157 in sequence 11; listed as Homo sapiens) [H-2] |  | highest ALP inducing activity | enhanced dose dependently | induced mineralization | enhanced the induction of mineralization | closely similar to those of TGF-β1 |  |  |  |  |  |  |
| TGF-β1: recombinant growth factor, positive control [reference compound] |  | enhanced in a dose-dependent manner; also recorded: increased |  |  |  |  | shown to have the same activity | inhibited distinctly | further increased | 0.4 nM/liter | around 10 ng/ml | not stimulated |
